{"source": "patent US6184207A", "about": "“Inhibitors of peptide binding to MHC class II proteins” (Zeneca Limited, priority 1996, dated 2001)", "key": {"BALB/C mice": {"system": "BALB/C mice", "assay": "Test C: Peptide stimulated DTH (delayed type hypersensitivity) in BALB/C mice", "assay_type": "in vivo", "details": "ovalbumin DTH footpad swelling, 3-day osmotic mini-pumps", "procedure": "Test C: Peptide stimulated DTH (delayed type hypersensitivity) in BALB/C mice. […] Balb/c female mice (18-20 g), 5 per group, were immunised sub-cutaneously on the flank with 0.1 ml of an emulsion of ovalbumin (Sigma) (2 mg/ml in saline) mixed 1:1 (v/v) with complete Freunds adjuvant (Sigma). Seven days later footpad thickness was detemined using a dual caliper micrometer followed by a challenge in one hind footpad with a 30 μl sub-plantar injection of 1% heat-aggregated ovalbumin protein in saline. Twenty-four hours after antigen challenge, footpads were measured and the DTH response calculated as the percentage increase in footpad thickness in the injected footpad compared to contralateral control. Inhibitors were adminstered by 3-day osmotic mini-pumps (Alzet) implanted 24 hours prior to antigen challenge at doses ranging from 10 mg/kg/day to 0.1 μg/kg/day. The degree of inhibition was calculated by substracting the value for swelling of inhibitor treated footpads from that of the vehicle dosed controls, dividing by the control value and multiplying by 100%."}, "HLA-DR4Dw4": {"target": "T1, HLA-DR4Dw4 (Homo sapiens, UniProt P01903+P01911, A100K/A169T/F76Y/I96L/K127E/L162R/M171V/N62H/P40V/Q125Y/R42H/S133A/S149N/S66Y/V115G/V209L/W38E)", "T1 construct": "a cDNA encoding the β chain is cloned into the transfer vector pAcUW1; made in house; host or cells: Sf21 insect cells, double-recombinant baculovirus", "assay": "Test A: Purified HLA-DR peptide in vitro binding assay", "details": "inhibition of biotin-FHA 307-320 binding to purified HLA-DR4Dw4, 48 hours", "source_text": "The utility of the peptides of the formula I, or a pharmaceutically acceptable salt thereof, may be assessed using a variety of standard tests and clinical studies, including those described in International Patent Application, Publication Nos. WO92/02543, WO93/05011 and WO95/07707 (or modifications thereof) and those described below. The peptides of formula I show significant activity in one or more of such tests or studies. Test A: Purified HLA-DR peptide in vitro binding assay. […]. […] The reaction is stopped by adding 2M sulphuric acid (10 μl per well) and the absorbance read at 450 nm to quantify the amount of peptide bound. The inhibitory activity of peptides is obtained by plotting absorbance against concentration. […]\nA cDNA encoding the sequence of the α polypeptide is cloned into the transfer vector pacYM1 [Matsuura, Y; Possce, RD; Overton, HA & Bishop, DHL (1987) J. Gen. […] The molecular genetic techniques used to construct the recombinant vectors are likewise readily available in the literature and are most fully described by Sambrook, J; Fritsch, EF & Maniatis T, (1989) [Molecular Cloning. […]"}}, "data": [{"compound": "C[C@H](NC(=O)CN1CCCC(NC(=O)[C@@H](NC(=O)[C@H](C)NC(=O)[C@H](C)NC(=O)[C@H](C)NC(=O)[C@H](CCCNC(=N)N)NC(=O)CCCCc2ccccc2)[C@@H](C)O)C1=O)C(=O)Nc1ccc(CC(N)=O)cc1", "note": "(stereo partly drawn) [Example 1, Phv-Arg-Ala-Ala-Ala-Thr-II-Ala-Papa-NH2]", "values": [{"measurement": "dose at which active in Test C", "setting": "BALB/C mice", "result": "< 0.1", "unit": "mg/kg/day"}, {"measurement": "concentration showing significant binding to HLA-DR4Dw4 in Test A", "setting": "HLA-DR4Dw4", "result": "≤ 0.1", "unit": "µM"}]}]}
